What was measured:
[1] = system: CTG repeat in the 3′ UTR of human DMPK gene; test: Dual-cut screening: CTG repeat excision efficiency by loss-of-signal ddPCR; format: cell-based; conditions: sgRNA pair, primary DM1 patient myoblasts; for Excision efficiency (by ddPCR): 3 μM DNA-PKi Compound 6 for 48 hours; for Excision efficiency by ddPCR (Vehicle): vehicle (DMSO)
In short: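 Upstream and downstream SluCas9 RNPs (20 pmol protein, 60 pmol sgRNA each) mixed 1:1 and nucleofected into primary DM1 patient myoblasts, then treated 48 h with DMSO or 3 μM DNA-PKi Compound 6. Genomic DNA taken 72 h post-nucleofection; excision read as loss of target signal by ddPCR versus a DMPK exon 1 reference.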

[2] = system: CUG foci in primary DM1 patient myoblasts; test: Dual-cut screening: FISH staining of CUG RNA foci; format: cell-based, human; conditions: sgRNA pair, primary DM1 patient myoblasts; for % of CUG foci free nuclei (DNA-PKi): 3 μM DNA-PKi Compound 6 for 48 hours; for % of CUG foci free nuclei (Vehicle): vehicle (DMSO)
In short: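 SluCas9 RNPs (protein:sgRNA 1:3; 20 pmol SluCas9 + 60 pmol sgRNA per guide, paired 1:1) nucleofected into primary DM1 patient myoblasts, then DMSO or 3 μM DNA-PKi Compound 6 for 48 h. At 72 h post-nucleofection cells fixed, FISH-stained with Cy3-PNA(CAG)5 probe plus anti-MBNL1 and Hoechst; % CUG foci-free nuclei by high-content confocal imaging.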

Substance | Excision efficiency (by ddPCR) [1] | Excision efficiency by ddPCR (Vehicle) [1] | % of CUG foci free nuclei (DNA-PKi) [2] [%] | % of CUG foci free nuclei (Vehicle) [2] [%]
SluU08 + SluD48 (guide 1 GCCCCGTTGGAAGACTGAGTGC; guide 2 GAGAGCAGCGCAAGTGAGGAGG; guide RNA; listed as DNA, chemistry not fully specified) | 55.92 | 42.14 | 87.63 | 64.93
SluU59 + SluD100 (guide 1 CGCGGCCGGCGAACGGGGCTCG; guide 2 GTCCAGAGCTTTGGGCAGATGG; guide RNA; listed as DNA, chemistry not fully specified) | 68.69 | 37.61 | 90.09 | 62.45
SluU10 + SluD34 (guide 1 CCCGTTGGAAGACTGAGTGCCC; guide 2 CGCGCCAGACGCTCCCCAGAGC; guide RNA; listed as DNA, chemistry not fully specified) | 68.59 | 52.12 | 88.63 | 80.9
SluU10 + SluD83 (guide 1 CCCGTTGGAAGACTGAGTGCCC; guide 2 GTGGGGACAGACAATAAATACC; guide RNA; listed as DNA, chemistry not fully specified) | 68.8 | 47.63 | 89.5 | 74.17
SluU06 + SluD18 (guide 1 TGTCTTCGACTCCGGGGCCCCG; guide 2 TGGAGGATGGAACACGGACGGC; guide RNA; listed as DNA, chemistry not fully specified) | 64.53 | 45.61 | 87.79 | 69.25
SluU06 + SluD14 (guide 1 TGTCTTCGACTCCGGGGCCCCG; guide 2 ATGGGCAAACTGCAGGCCTGGG; guide RNA; listed as DNA, chemistry not fully specified) | 65.02 | 48.08 | 83.37 | 66.72
SluU64 + SluD68 (guide 1 GGGCTCGAAGGGTCCTTGTAGC; guide 2 CCTGTAGCCTGTCAGCGAGTCG; guide RNA; listed as DNA, chemistry not fully specified) | 72.9 | 46.16 | 89.56 | 74.94
SluU64 + SluD83 (guide 1 GGGCTCGAAGGGTCCTTGTAGC; guide 2 GTGGGGACAGACAATAAATACC; guide RNA; listed as DNA, chemistry not fully specified) | 78.97 | 55.22 | 90.63 | 76.55
SluU63 + SluD68 (guide 1 GGGGCTCGAAGGGTCCTTGTAG; guide 2 CCTGTAGCCTGTCAGCGAGTCG; guide RNA; listed as DNA, chemistry not fully specified) | 93.64 | 57.23 | 90.625 | 71.74
SluU62 + SluD48 (guide 1 AGGACCCTTCGAGCCCCGTTCG; guide 2 GAGAGCAGCGCAAGTGAGGAGG; guide RNA; listed as DNA, chemistry not fully specified) | 66.36 | 35.6 | 88.08 | 54.22
SluU62 + SluD34 (guide 1 AGGACCCTTCGAGCCCCGTTCG; guide 2 CGCGCCAGACGCTCCCCAGAGC; guide RNA; listed as DNA, chemistry not fully specified) | 64.95 | 48.18 | 88.29 | 64.71
SluU63 + SluD83 (guide 1 GGGGCTCGAAGGGTCCTTGTAG; guide 2 GTGGGGACAGACAATAAATACC; guide RNA; listed as DNA, chemistry not fully specified) | 93.27 | 58.74 | 89.8 | 74.11
SluU21 + SluD56 (guide 1 GCTCGGAGCGGTTGTGAACTGG; guide 2 CCAGCCGGCTCCGCCCGCTTCG; guide RNA; listed as DNA, chemistry not fully specified) | 59.97 | 25.94 | 85.39 | 31.9
SluU06 + SluD34 (guide 1 TGTCTTCGACTCCGGGGCCCCG; guide 2 CGCGCCAGACGCTCCCCAGAGC; guide RNA; listed as DNA, chemistry not fully specified) | 67.57 | 51.37 | 90.66 | 78.56
SluU59 + SluD32 (guide 1 CGCGGCCGGCGAACGGGGCTCG; guide 2 CTTGTGCATGACGCCCTGCTCT; guide RNA; listed as DNA, chemistry not fully specified) | 83.32 | 57.23 | 91.19 | 69.23
SluU10 + SluD14 (guide 1 CCCGTTGGAAGACTGAGTGCCC; guide 2 ATGGGCAAACTGCAGGCCTGGG; guide RNA; listed as DNA, chemistry not fully specified) | 61.58 | 43.14 | 84.04 | 62.95
SluU21 + SluD06 (guide 1 GCTCGGAGCGGTTGTGAACTGG; guide 2 CCAGGCTGAGGCCCTGACGTGG; guide RNA; listed as DNA, chemistry not fully specified) | 66.01 | 46.6 | 88.47 | 48.27
SluU06 + SluD06 (guide 1 TGTCTTCGACTCCGGGGCCCCG; guide 2 CCAGGCTGAGGCCCTGACGTGG; guide RNA; listed as DNA, chemistry not fully specified) | 57.64 | 42.65 | 87.02 | 62.81
SluU06 + SluD68 (guide 1 TGTCTTCGACTCCGGGGCCCCG; guide 2 CCTGTAGCCTGTCAGCGAGTCG; guide RNA; listed as DNA, chemistry not fully specified) | 62.99 | 47.38 | 89.4 | 64.01
SluU08 + SluD18 (guide 1 GCCCCGTTGGAAGACTGAGTGC; guide 2 TGGAGGATGGAACACGGACGGC; guide RNA; listed as DNA, chemistry not fully specified) | 63.55 | 50.56 | 90.44 | 67.06
SluU59 + SluD73 (guide 1 CGCGGCCGGCGAACGGGGCTCG; guide 2 CCAAAACGTGGATTGGGGTTGT; guide RNA; listed as DNA, chemistry not fully specified) | 64.95 | 42.14 | 87.85 | 59.22
SluU08 + SluD06 (guide 1 GCCCCGTTGGAAGACTGAGTGC; guide 2 CCAGGCTGAGGCCCTGACGTGG; guide RNA; listed as DNA, chemistry not fully specified) | 59.11 | 46.6 | 86.69 | 59.22
SluU62 + SluD68 (guide 1 AGGACCCTTCGAGCCCCGTTCG; guide 2 CCTGTAGCCTGTCAGCGAGTCG; guide RNA; listed as DNA, chemistry not fully specified) | 63.55 | 33.08 | 87.71 | 49.06
SluU63 + SluD34 (guide 1 GGGGCTCGAAGGGTCCTTGTAG; guide 2 CGCGCCAGACGCTCCCCAGAGC; guide RNA; listed as DNA, chemistry not fully specified) | 93.5 | 63.27 | 87.25 | 77.85

Reference: US20240173432A1, “Compositions and Methods for Treatment of Myotonic Dystrophy Type 1 with CRISPR/SluCas9” (Vertex Pharmaceuticals Incorporated, priority 2021, published 2024)
